The values that follow come from patent US20230348418A1, “ISOINDOLINONE COMPOUNDS” (Monte Rosa Therapeutics, Inc., priority 2021, published 2023).

For one assay, the target named is T1, IKZF1 (Ikaros) (Homo sapiens, UniProt Q13422).
T1 construct: endogenous in cells; host or cells: MM1S (ATCC CRL-2974)
In words: Western blot selectivity assay in MM1S cells: IKZF1. The assay is classed as cell-based. More on the design: key: A represents a no degradation observed at 30 μM; B represents trace degradation at 30 μM (below 20%); C represents weak degradation at 30 μM (below 50%); D represents degradation at 30 μM (>90%); E represents degradation at 3 μM (>90%); F represents degradation at 0.3 μM (>90%). As to conditions: MM1S cells, 0.3, 3 and 30 μM, 6 hours. How it is done: MM1S cells were purchased from ATCC (cat. Number CRL-2974), sub-cultured in 90% RPMI 1640 with 10% FBS, supplemented with 1×P/S and incubated at 37° C., 5% CO2. Compounds were stored as 10 mM DMSO stock. For the assay, MM1S cells (3 million cells/well) were plated in 6-well plates and incubated over night. Cells were treated with respective compounds using a serial dilution: 0.3 μM, 3 μM and 30 μM as well as a vehicle only (DMSO) control for 6 hours. Media with suspension cells was subsequently transferred to 15 mL conical tubes, wells rinsed twice with ice-cold PBS and merged with cell suspension in respective 15 mL conical tube. Cells were spinned down, supernatant aspirated, pellets resuspended in ice-cold PBS and transferred to microtubes. Cells were spinned down, supernatant aspirated and pellets resuspended in 120 μL RIPA lysis buffer supplemented with protease and phosphatase inhibitors. Cell lysates were incubated on ice for 20 minutes followed by centrifugation at >20,000×g for 5 min. Supernatants were transferred to fresh microtubes and stored at −80° C. Total protein concentration was determined using a BCA assay with a BSA standard curve and concentration of all samples was adjusted to 1 mg/mL. 25 μL 4×LDS sample buffer supplemented with 100 mM DTT was added to 75 μL sample. Samples were centrifuged (8,000×g, 1 min) and incubated at 95° C. for 5 min followed by another centrifugation step (8,000×g, 1 min). 20 μL of each sample was loaded on a 4-12% gel alongside a protein molecular weight marker. Gels were run in the presence of MOPS buffer at 80 Volts for 30 min, followed by 120 Volts for 1.5 h and proteins subsequently transferred onto nitrocellulose membranes at 20 Volts for 7 min using an iBlot2 Gel Transfer Device. Membranes were then cut horizontally into two pieces, covering 80-50 kDa and 50-25 kDa. Blocking the membranes was performed by gently shaking in 5% (w/v) skim milk in TSB-T for 1 hr at room temperature. All primary antibodies were used at a 1/1000 in 5% (w/v) BSA dissolved in TBST and incubated with membranes over night at 4° C. Anti-IKZF1 (Ikaros; D6N9Y; 14859S), anti-IKZF3 (Aiolos; D1C1E; 15103S) antibodies were purchased from Cell Signalling Technology, anti-ZFP91 antibody from Bethyl laboratories, anti-GSPT1 from Sigma Aldrich (HPA052488) and anti CK1alpha from AbCam (ab206652). After three washes with 1×TBST for 5 min, HRP-coupled secondary antibodies diluted in 5% (w/v) BSA/TBST (Goat Anti-Rb IgG, dil. 1/10,000; Goat Anti-Mouse IgG, dil. 1/5000) were added for 1 hr at room temperature. After three washes with 1×TBST (5 minutes each), membranes were incubated with ECL reagent for 1 min at room temperature. Chemiluminescence signals were then detected using a LAS-4000 system with default settings and signals quantified using Image Studio Lite software (version 5.2). Membrane parts previously incubated with antibody against CK1alpha were stripped off antibodies by incubating with stripping buffer for 30 minutes followed by three washed with TBST (5 min each), blocking with 5% (w/v) skim milk for 1 hr, and incubation with primary antibody against GAPDH overnight at 4° C. Subsequent washes, incubation with secondary antibody and signal acquisition were performed as described above.

For another assay, the target named is GSPT1 (Homo sapiens, UniProt P15170+Q96SW2). In words: Quantitative proteomics analysis in ABC1 cells. The assay is classed as cell-based. The following applies: 100 nM, 6 hr. How it is done:
Quantitative Proteomics Analysis: ABC1 cells were treated with either DMSO (2 replicates) or compound 10 at 100 nM (2 replicates) for 6 hr. Proteins were extracted with the PreOmics iST-NHS lysis buffer (#P.O.00030). The samples were then processed using the PreOmics kit following their recommended protocol with minor modifications. In brief, the proteins were reduced, alkylated and digested for 2 h at 37° C. The peptides were then labelled with TMT reagent (1:4; peptide:TMT label) (Thermo Fisher Scientific). After quenching, the peptides were purified, and the 16 samples were combined to a 1:1 ratio. […] Eluted TMT peptides were analyzed on an Orbitrap Eclipse mass spectrometer (Thermo Fisher Scientific). […] Precursors were fragmented by CID at a normalized collision energy (NCE) of 35% and analyzed in the ion trap. Following MS2, synchronous precursor selection (SPS) MS3 scans were collected by using high energy collision-induced dissociation (HCD) and fragments were analyzed using the Orbitrap (NCE 55%, AGC target 1×10^5, maximum injection time 120 ms, resolution 60,000). Protein identification and quantification were performed using Proteome Discoverer 2.4.0.305 with the SEQUEST algorithm and Uniprot human database (2021-01-29, 20614 protein sequences). […] Protein relative quantification was performed using an in-house developed java notebook. […]

Each structure is given as a SMILES string.

T1 sequence (Q96SW2 whole entry partner): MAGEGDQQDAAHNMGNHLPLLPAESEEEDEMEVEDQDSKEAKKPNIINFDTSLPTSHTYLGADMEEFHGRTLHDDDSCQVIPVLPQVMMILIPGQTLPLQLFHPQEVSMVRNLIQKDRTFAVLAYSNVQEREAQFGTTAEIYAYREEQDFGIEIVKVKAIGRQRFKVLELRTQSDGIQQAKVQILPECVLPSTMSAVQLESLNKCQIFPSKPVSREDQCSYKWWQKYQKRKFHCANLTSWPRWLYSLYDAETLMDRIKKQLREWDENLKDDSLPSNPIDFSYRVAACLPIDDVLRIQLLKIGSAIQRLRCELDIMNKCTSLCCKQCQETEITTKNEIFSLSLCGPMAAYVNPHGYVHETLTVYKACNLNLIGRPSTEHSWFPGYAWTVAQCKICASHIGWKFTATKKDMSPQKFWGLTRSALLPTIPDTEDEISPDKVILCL
T1 sequence (Q16531 2-1140 partner limits assumed): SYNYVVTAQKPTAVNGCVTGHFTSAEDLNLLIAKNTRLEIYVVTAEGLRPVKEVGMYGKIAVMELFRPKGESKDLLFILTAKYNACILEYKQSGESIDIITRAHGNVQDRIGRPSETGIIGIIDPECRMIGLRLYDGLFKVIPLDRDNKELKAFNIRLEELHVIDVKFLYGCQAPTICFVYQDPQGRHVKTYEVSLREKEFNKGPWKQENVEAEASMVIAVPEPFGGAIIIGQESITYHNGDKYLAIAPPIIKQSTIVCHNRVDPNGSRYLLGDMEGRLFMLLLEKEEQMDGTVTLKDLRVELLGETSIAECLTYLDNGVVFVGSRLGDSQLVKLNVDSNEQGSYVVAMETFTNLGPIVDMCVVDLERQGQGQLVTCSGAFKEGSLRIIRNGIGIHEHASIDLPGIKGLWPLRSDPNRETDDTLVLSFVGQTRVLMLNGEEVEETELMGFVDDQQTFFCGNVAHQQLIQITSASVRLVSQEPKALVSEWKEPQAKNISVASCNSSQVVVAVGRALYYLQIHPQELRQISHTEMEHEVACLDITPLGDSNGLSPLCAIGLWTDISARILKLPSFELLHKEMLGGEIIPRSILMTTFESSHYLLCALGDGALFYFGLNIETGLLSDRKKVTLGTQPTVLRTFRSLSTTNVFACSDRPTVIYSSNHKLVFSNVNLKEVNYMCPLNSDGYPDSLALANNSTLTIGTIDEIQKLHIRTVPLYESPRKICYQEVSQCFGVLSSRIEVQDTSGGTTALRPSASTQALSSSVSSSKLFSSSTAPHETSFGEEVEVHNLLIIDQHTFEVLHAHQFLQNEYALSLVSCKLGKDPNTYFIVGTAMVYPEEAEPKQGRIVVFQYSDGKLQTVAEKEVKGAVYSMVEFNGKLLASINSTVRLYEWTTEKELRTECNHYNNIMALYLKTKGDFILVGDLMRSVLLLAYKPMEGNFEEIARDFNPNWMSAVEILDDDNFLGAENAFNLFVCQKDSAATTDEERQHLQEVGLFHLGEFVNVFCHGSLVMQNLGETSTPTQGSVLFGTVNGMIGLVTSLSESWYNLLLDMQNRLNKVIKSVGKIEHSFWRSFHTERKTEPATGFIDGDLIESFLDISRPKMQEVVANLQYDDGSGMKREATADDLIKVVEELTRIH
T1 sequence (Q13422 whole entry): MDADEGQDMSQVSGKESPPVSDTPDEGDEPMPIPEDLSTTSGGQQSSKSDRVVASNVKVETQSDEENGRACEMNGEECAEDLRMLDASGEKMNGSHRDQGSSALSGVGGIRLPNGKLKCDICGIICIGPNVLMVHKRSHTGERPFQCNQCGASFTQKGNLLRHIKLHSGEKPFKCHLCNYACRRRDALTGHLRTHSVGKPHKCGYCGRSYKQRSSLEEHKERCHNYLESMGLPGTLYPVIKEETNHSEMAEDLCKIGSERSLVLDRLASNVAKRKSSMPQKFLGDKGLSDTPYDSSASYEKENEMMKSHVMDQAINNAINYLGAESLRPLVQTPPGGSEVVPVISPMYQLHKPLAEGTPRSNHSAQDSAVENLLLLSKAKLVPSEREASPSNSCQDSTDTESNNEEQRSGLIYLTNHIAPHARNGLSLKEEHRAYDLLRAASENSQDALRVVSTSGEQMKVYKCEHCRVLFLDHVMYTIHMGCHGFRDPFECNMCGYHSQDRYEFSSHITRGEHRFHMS
Sequence of GSPT1 (P15170 whole entry): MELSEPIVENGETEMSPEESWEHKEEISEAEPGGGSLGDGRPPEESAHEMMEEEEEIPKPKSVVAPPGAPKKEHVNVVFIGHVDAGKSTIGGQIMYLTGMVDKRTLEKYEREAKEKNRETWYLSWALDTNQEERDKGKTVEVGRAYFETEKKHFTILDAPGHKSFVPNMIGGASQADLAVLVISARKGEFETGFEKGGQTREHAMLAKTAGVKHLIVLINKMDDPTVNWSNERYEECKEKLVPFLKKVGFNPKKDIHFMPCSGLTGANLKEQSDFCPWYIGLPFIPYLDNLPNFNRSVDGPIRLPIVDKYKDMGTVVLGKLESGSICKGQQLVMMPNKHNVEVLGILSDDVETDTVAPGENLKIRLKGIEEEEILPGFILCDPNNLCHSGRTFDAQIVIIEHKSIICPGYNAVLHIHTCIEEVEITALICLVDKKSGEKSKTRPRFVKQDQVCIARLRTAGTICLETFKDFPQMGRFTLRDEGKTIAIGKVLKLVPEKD
Sequence of GSPT1 (Q96SW2 whole entry): as the sequence (Q96SW2 whole entry partner) above
Sequence of GSPT1 (Q16531 2-1140 partner limits assumed): as the sequence (Q16531 2-1140 partner limits assumed) above

Consider `Cc1ccc(NC(=O)OCc2ccc3c(c2)C(=O)N(C2CCC(=O)NC2=O)C3)cc1Cl` (centres unmarked) [Compound 10], for which the IKZF1 degradation entry at IKZF1 (Ikaros) is “A”. For the same molecule, the “Protein downregulation in mass spectrometry-based proteomics (FIG. 1B)” value on GSPT1 is recorded as “GSPT1 was the most statistically significant downregulated protein”.
